This passage reports IC50 and AC50 results from ChEMBL document CHEMBL1201862, “PubChem BioAssay data set” (2004).

The source made the active and inactive calls.

The target of test [1] is Kappa-type opioid receptor (Homo sapiens, UniProt P41145). Format: functional.
Test [2] in a line: viability loss in CEM21 cells – cell-based, CellTiter-Glo luminescence, cherry-picked, cytotoxicity control for viral fusion inhibitor project, dose response (AID 652042).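 Note: potency for signal decrease meaning cytotoxicity.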 The test is classed as functional. A general note: ATP-based viability assays read luminescence as a measure of living cells.
Test [3] in a line: HIV-1 AD8 envelope cell-cell fusion blockers – cherry-pick, dose response (AID 652062).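 Note: luciferase signal from cell-cell fusion driven by HIV-1 clade B AD8 Env; potency is for inhibitors of fusion seen as a drop in luminescence.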 Format: functional, cell-based.
Test [4] addresses 1-phosphatidylinositol 4,5-bisphosphate phosphodiesterase gamma-1 (Homo sapiens, UniProt P19174). Nature of the test: Counterscreen for inhibitors of phospholipase C isozymes (PLC-B3): Fluorescence-based biochemical high throughput dose response assay to identify inhibitors of phospholipase C isozymes (PLC-gamma1). A general note: The purpose of a counterscreen is to sort out artefacts and off-target activity.

Kappa-type opioid receptor, sequence (P41145 whole entry, the tested form may be a part): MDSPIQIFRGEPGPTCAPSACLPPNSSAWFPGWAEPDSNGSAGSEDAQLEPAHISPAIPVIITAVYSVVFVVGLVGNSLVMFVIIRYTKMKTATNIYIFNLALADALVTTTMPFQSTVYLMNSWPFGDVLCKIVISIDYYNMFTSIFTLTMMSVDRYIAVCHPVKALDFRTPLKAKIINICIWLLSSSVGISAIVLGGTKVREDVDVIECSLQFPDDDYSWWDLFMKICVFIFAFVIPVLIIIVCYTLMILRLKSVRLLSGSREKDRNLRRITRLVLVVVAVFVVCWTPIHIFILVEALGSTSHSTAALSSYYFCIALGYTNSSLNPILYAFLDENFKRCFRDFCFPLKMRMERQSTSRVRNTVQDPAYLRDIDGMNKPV
1-phosphatidylinositol 4,5-bisphosphate phosphodiesterase gamma-1, sequence (P19174 whole entry): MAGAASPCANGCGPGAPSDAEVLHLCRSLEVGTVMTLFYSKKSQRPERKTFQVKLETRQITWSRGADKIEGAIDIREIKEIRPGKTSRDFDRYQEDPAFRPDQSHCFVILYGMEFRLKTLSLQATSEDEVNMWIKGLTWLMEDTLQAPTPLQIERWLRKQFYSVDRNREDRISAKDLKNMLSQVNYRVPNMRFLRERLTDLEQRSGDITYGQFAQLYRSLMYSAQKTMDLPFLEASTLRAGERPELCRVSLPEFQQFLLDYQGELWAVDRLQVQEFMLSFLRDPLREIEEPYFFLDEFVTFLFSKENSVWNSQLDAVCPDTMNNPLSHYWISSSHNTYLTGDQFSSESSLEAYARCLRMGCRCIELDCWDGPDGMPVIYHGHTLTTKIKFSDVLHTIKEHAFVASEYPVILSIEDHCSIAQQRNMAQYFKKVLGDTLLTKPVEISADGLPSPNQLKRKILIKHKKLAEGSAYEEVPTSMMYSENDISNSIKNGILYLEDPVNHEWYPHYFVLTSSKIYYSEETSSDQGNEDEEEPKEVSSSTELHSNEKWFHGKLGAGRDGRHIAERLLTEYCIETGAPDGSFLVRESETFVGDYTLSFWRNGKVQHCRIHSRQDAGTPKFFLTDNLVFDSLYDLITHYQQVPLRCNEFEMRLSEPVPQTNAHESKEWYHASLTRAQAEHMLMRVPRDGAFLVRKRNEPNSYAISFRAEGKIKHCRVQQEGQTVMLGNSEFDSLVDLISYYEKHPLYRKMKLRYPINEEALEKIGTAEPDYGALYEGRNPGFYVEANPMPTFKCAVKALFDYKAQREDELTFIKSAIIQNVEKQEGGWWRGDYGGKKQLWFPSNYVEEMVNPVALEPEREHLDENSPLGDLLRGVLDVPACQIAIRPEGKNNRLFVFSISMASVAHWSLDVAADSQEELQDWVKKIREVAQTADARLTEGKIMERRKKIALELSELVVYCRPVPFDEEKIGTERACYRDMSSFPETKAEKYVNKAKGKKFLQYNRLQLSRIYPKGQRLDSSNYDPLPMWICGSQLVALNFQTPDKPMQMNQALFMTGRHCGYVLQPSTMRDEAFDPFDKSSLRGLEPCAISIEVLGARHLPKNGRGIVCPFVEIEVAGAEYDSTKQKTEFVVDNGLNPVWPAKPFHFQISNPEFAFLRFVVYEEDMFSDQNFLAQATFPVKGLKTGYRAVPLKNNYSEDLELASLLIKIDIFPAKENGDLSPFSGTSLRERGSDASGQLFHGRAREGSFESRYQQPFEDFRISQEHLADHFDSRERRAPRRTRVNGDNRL

One may read the IC50 as the point on the concentration scale where inhibition reaches its midpoint. In test [1], `CCC(=O)OCCNc1cc(Sc2nccn2C)c2nonc2c1[N+](=O)[O-]` showed an IC50 of 22.7 µM.
One may read the AC50 as the concentration giving half of the maximal activity seen. Take `O=C1C(=O)c2ccccc2-c2ccccc21` [9,10-PHENANTHRENEQUINONE]: the half-maximal activity concentration (AC50) in test [2] was 1.93 µM (active); in test [3] it was 2.66 µM (active). For the same compound, the IC50 in test [4] is 6.37 µM (active).
